Literature values in patent US20210401895A1, “TREATMENT OF A DISEASE OF THE GASTROINTESTINAL TRACT WITH LIVE BIOTHERAPEUTICS” (Progenity, Inc., priority 2017, published 2021).

Assays:
[1] = tested on: malignant or hyperactive melanocytes
[2] = tested on: Propionibacterium acnes and Staphylococcus epidermidis; details: particularly Propionibacterium acnes and Staphylococcus epidermidis
[3] = tested on: dermatophytes, yeasts, moulds and other fungi; details: broad spectrum of dermatophytes

| Structure (SMILES) | effect on malignant or hyperactive melanocytes [1] | effects on aerobic and anaerobic organisms [2] | activity against fungi [3] |
| --- | --- | --- | --- |
| O=C(O)CCCCCCCC(=O)O [Azelaic acid] | cytotoxic effect | antibacterial effects | – |
| Cc1cc(C2CCCCC2)n(O)c(=O)c1 [Ciclopirox] | – | – | fungicidal, fungistatic and sporicidal activity |
